According to PubChem BioAssay (NCI):
Where “and” joins values, the source holds several entries; their conditions need not be identical. Equal values may be shown once.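 Interpolation was linear, between the two tested concentrations surrounding the appropriate level; five concentrations were tested over 48 hours in 96-well plates. At the GI50, growth is halved. TGI denotes the concentration required for complete inhibition of growth.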

Assays:
Assay in all cases: DTP human tumour cell line panel, 48 h
M14 melanoma = test system: M14 melanoma
ACHN renal = test system: ACHN renal
SF-295 CNS = test system: SF-295 CNS
A498 renal = test system: A498 renal
SNB-75 CNS = test system: SNB-75 CNS
MDA-MB-435 = test system: MDA-MB-435
CAKI-1 renal = test system: CAKI-1 renal
SW-620 colon = test system: SW-620 colon
RXF 393 renal = test system: RXF 393 renal
NCI-H522 lung = test system: NCI-H522 lung

Row | Compound | GI50 (M14 melanoma) [µM] | TGI (M14 melanoma) | GI50 (ACHN renal) [µM] | TGI (ACHN renal) | GI50 (SF-295 CNS) [µM] | TGI (SF-295 CNS) [µM] | GI50 (A498 renal) [µM] | TGI (A498 renal) | GI50 (SNB-75 CNS) [µM] | TGI (SNB-75 CNS) [µM] | GI50 (MDA-MB-435) [µM] | TGI (MDA-MB-435) [µM] | GI50 (CAKI-1 renal) [µM] | TGI (CAKI-1 renal) [µM] | GI50 (SW-620 colon) [µM] | TGI (SW-620 colon) [µM] | GI50 (RXF 393 renal) | TGI (RXF 393 renal) | TGI (NCI-H522 lung) [µM] | GI50 (NCI-H522 lung) [µM]
1 | Oc1ccc(CCNc2nc3ccccc3c3[nH]c4ccccc4c23)cc1O | 2.62 | 7.28 µM | 2.14 | 5.76 µM | 5.51 | > 100 | 13.6 | 26.5 µM | 15.9 | 33.2 | 1.7 | 3.26 | 11 | 22.9 | 1.66 | 3.44 | 1.91 µM | 3.59 µM |  | 
2 | O=S(=O)(c1ccccc1)N1CCC1c1ccccc1 (centres undefined) |  | > 100 µM |  | > 100 µM |  | > 100 |  | > 100 µM |  | > 100 |  |  |  |  |  | > 100 |  | > 100 µM | > 100 | 
3 | O=c1cc(-c2cccc(Cl)c2)[nH]c2cc3c(cc12)OCO3 | 0.248 | 75 µM and 13.9 µM | 0.565 | 75 µM and 90.9 µM |  |  | 1.04 | 36.9 µM and 29.6 µM |  | 0.712 |  | 0.193 |  |  |  | > 100 | 0.164 µM and 0.626 µM | 75 µM and 9.8 µM | 2.8 | 
4 | COc1ccc(-c2cc(=O)c3c(C)ccnc3[nH]2)cc1 |  | > 100 µM |  | > 100 µM | 19.5 | > 100 |  | 41.4 µM |  |  |  |  |  | > 100 |  | > 100 |  | 41.6 µM | > 100 | 
5 | O=NN(CC1(O)OCC(O)C(O)C1O)C(Cc1c[nH]c2ccccc12)C(=O)O (centres undefined) |  | > 100 µM |  | > 100 µM |  |  |  | > 100 µM |  | > 100 |  |  |  |  |  | > 100 |  | > 100 µM | > 100 | 
6 | CCOc1ccc2c(c1)[n+]([O-])c(-c1ccccc1)c(N)[n+]2[O-] |  | > 100 µM |  | > 100 µM |  | > 100 |  | > 100 µM |  | > 100 |  |  |  | 89.4 |  | > 100 |  |  | 32.2 | 
7 | CCN(Cc1ccccc1)c1ccc(/C=C2\COc3ccccc3C2=O)cc1 | 330 | > 1000 µM | > 1000 | > 1000 µM | > 1000 | > 1000 | > 1000 | > 1000 µM | > 1000 | > 1000 | 47 | 458 |  |  | 146 | > 1000 | 758 µM | > 1000 µM | > 1000 | 156
8 | O=c1c2ccccc2c(=O)n2n1-c1cccc(c1)CSSCc1cccc-2c1 |  |  | > 100 | > 100 µM |  | > 100 |  |  |  |  |  |  | > 100 | > 100 | > 100 | > 100 |  | > 100 µM | > 100 | > 100
9 | CN1CCN(CCCOC(=O)c2c3c(n4ccccc24)C(=O)c2ncccc2C3=O)CC1 | < 0.0149 | 0.253 µM | < 0.01 | 0.0154 µM | < 0.0117 | 0.199 |  |  | < 0.0142 | 0.105 | 0.0142 | 0.162 | < 0.01 | 0.366 | < 0.01 | 0.0385 | < 0.0118 µM | 0.0303 µM | < 0.0164 | < 0.01
10 | Cc1cccc(-c2nc(=S)[nH][nH]2)c1 |  | > 100 µM |  | > 100 µM |  | > 100 |  | > 100 µM |  | > 100 |  |  |  | > 100 |  | > 100 |  |  | > 100 | 
11 | CCN(CC)CC(C(=O)Nc1c(C)cccc1C)/C(C)=N\NC(=S)NN (centres undefined) |  | > 100 µM |  | > 100 µM |  | > 100 |  | > 100 µM |  | > 100 |  |  |  |  |  | > 100 |  | > 100 µM | > 100 | 
12 | O=c1c(-c2cccc3ccccc23)c(-c2cccc3ccccc23)c1=O |  | 8.51 µM |  | > 100 µM |  | 2.82 |  | 18.1 µM |  | 4.07 |  |  |  | > 100 |  | 58.9 |  | 45.7 µM | 3.12 | 
13 | CC1COS(=O)N1c1ccccc1 (centres undefined) |  | > 100 µM |  | > 100 µM |  | > 100 |  | > 100 µM |  | > 100 |  |  |  |  |  | > 100 |  | > 100 µM | > 100 | 
14 | NCCNCCNCc1c2ccccc2c(CNCCNCCN)c2ccccc12 |  | > 100 µM |  | > 100 µM |  | > 100 |  |  |  |  |  |  |  | > 100 |  | > 100 |  | > 100 µM |  | 
15 | O=C(O)CN(CCN(CC(=O)O)CC(=O)O)CCN(CC(=O)O)CC(=O)O | 5.29 | 21.5 µM | 2.59 | 13.6 µM | 3.25 | 21.3 | 1.86 | 15.1 µM | 1.99 | 7.86 | 3.94 | 21.8 | 3.58 | 20.2 | 3.85 | 19 | 2.07 µM | 4.85 µM |  | 
16 | O=C(O)c1ccccc1NS(=O)(=O)c1ccc(Cl)cc1 |  | > 100 µM |  | > 100 µM |  |  |  |  |  | > 100 |  |  |  | > 100 |  | > 100 |  | > 100 µM | > 100 | 
17 | Cc1cc2c(cc1Cl)SC(=Nc1ccc(Cl)cc1)N(S(=O)(=O)c1ccc(Br)s1)S2(=O)=O | 21.9 | 56.5 µM | 9.05 | 21.1 µM | 24.7 | 60.5 | 5.02 | 26.2 µM |  |  | 14.1 | 31.3 | 19.5 | 42.2 | 24.5 | > 100 |  |  | > 100 | 37.3
18 | OC(c1ccccc1)c1c(-c2ccccc2)[nH]c(-c2ccccc2)c1C(O)c1ccccc1 (centres undefined) |  | 11.8 µM |  | 11.9 µM |  | 38.6 |  | 8.73 µM |  |  |  | 7.73 |  | 6.75 |  | 29.1 |  | 10.3 µM | 11.5 | 
19 | CC1=NC2(C(=O)O)C3(C(=O)O)N=C(C)OC3(C(F)(F)F)C2(C(F)(F)F)O1 (centres undefined) |  | > 100 µM |  | > 100 µM |  | > 100 |  | > 100 µM |  | > 100 |  |  |  | > 100 |  | > 100 |  | > 100 µM | > 100 | 
20 | Clc1ccc2c(NCCCCNc3nc(N4CCOCC4)nc4ccccc34)ccnc2c1 | 2 | 3.91 µM | 1.9 | 3.6 µM | 1.79 | 3.73 | 1.83 | 4.28 µM | 1.33 | 3.03 | 2.4 | 6.18 |  |  | 2.65 | 12.5 | 1.65 µM | 3.73 µM | 5.6 | 2.34
